Measured values: patent US11034679B2 (priority 2017, dated 2021)
Where two headings read alike, the source gives them in different places.

Key:
[1] = biological target: T1, MOR (Homo sapiens, UniProt P35372); experiment: cell-based; design: host or cells: CHO-K1 OPRM1 β-arrestin-2 cells; settings: for Emax: read-out: % Efficacy (maximum efficacy based on DAMGO maximum stimulation)
Target sequence in this assay (P35372 whole entry): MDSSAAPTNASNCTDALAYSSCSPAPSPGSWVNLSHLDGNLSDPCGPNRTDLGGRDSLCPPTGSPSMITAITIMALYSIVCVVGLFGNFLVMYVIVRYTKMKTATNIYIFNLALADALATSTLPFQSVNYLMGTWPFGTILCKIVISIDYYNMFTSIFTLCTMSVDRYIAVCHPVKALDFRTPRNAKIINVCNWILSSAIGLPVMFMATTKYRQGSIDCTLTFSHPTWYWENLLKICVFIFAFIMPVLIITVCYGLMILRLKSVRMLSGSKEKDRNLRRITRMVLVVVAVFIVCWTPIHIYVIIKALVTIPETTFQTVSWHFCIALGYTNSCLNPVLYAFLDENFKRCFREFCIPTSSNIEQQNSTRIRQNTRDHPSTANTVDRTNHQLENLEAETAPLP
Target sequence in this assay (P32121 whole entry partner): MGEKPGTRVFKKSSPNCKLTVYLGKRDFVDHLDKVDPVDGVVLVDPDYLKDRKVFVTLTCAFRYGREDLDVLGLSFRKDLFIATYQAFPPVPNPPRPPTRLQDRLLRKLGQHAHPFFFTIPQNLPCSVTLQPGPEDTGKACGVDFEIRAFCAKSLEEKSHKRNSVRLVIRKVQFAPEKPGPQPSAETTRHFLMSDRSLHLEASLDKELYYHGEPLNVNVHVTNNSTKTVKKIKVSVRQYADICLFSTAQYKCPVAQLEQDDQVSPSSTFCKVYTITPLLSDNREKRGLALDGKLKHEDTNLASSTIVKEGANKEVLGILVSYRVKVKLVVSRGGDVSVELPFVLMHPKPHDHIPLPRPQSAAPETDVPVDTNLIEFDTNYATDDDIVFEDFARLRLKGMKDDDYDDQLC

[2] = biological target: T1, MOR; experiment: cell-based; type: cell-based; design: expressed in transfected cells; host or cells: CHO cells stably expressing MOR; settings: for MOR potency relative to kurkinorin: cAMP assay, Table 1
Target sequence in this assay (P35372 whole entry): as the sequence (P35372 whole entry) above

[3] = system: mice; experiment: hot water tail-flick tolerance evaluation; type: in vivo; settings: daily i.p. for 9 days, 10 mg/kg morphine or 5 mg/kg compound 3.46, latency 30 min after dose
[4] = system: mice; experiment: accelerating rotarod performance assay; settings: preliminary data, compared to morphine
[5] = CHO cells expressing MOR, read-out: EC50 (inhibition of cAMP accumulation)

| SMILES | EC50 [1] [nM] | Emax [1] [%] | EC50 [2] [nM] | Emax ([2]; CHO) [%] | Bias Factor [1] | EC50 [2, 5] [nM] | antinociceptive effects (% maximal possible effect) on daily administration [3] | melting point [°C] | effects on motor coordination [4] | MOR potency relative to kurkinorin [2] |
| --- | --- | --- | --- | --- | --- | --- | --- | --- | --- | --- |
| COC(=O)[C@@H]1C=C(OC(=O)c2cccc(C(N)=O)c2)C(=O)[C@H]2[C@@]1(C)CC[C@H]1C(=O)O[C@H](c3ccoc3)C[C@]21C | > 25000 | 0 | > 10000 | 0 |  |  |  |  |  |  |
| C[C@@H](NC(=O)[C@@H](N)Cc1ccc(O)cc1)C(=O)NCC(=O)N(C)[C@@H](Cc1ccccc1)C(=O)NCCO [DAMGO, reference compound] |  |  |  |  | 1.0 |  |  |  |  |  |
| COC(=O)[C@@H]1C=C(OC(=O)c2ccc3ccoc3c2)C(=O)[C@H]2[C@@]1(C)CC[C@H]1C(=O)O[C@H](c3ccoc3)C[C@]21C [Entry 1, Methyl (2S,4aR,6aR,7R,10aR,10bR)-9-((benzofuran-6-carbonyl)oxy)-2-(furan-3-yl)-6a,10b-dimethyl-4,10-dioxo-1,4,4a,5,6,6a,7,10,10a,10b-decahydro-2H-benzo[f]isochromene-7-carboxylate] | 40 | 90 |  |  | 2.62 | 1.5 ± 0.6 |  |  |  |  |
| COC(=O)[C@@H]1C=C(OC(=O)c2ccc3occc3c2)C(=O)[C@H]2[C@@]1(C)CC[C@H]1C(=O)O[C@H](c3ccoc3)C[C@]21C [Entry 2, Methyl (2S,4aR,6aR,7R,10aR,10bR)-9-((benzofuran-5-carbonyl)oxy)-2-(furan-3-yl)-6a,10b-dimethyl-4,10-dioxo-1,4,4a,5,6,6a,7,10,10a,10b-decahydro-2H-benzo[f]isochromene-7-carboxylate] | 490 | 84 | 9 ± 2 |  | 1.21 |  |  |  |  |  |
| COC(=O)[C@@H]1C=C(OC(=O)c2ccc(CO)cc2)C(=O)[C@H]2[C@@]1(C)CC[C@H]1C(=O)O[C@H](c3ccoc3)C[C@]21C [Entry 3, Methyl (2S,4aR,6aR,7R,10aR,10bR)-2-(furan-3-yl)-9-((4-(hydroxymethyl)benzoyl)oxy)-6a,10b-dimethyl-4,10-dioxo-1,4,4a,5,6,6a,7,10,10a,10b-decahydro-2H-benzo[f]isochromene-7-carboxylate] | 14 | 81 |  |  | 0.14 | 0.03 ± 0.01 | maintained antinociceptive efficacy from days 1-9 | 115 to 118 | significantly less effects on motor coordination than morphine | about two orders of magnitude more potent than kurkinorin |
| COC(=O)[C@@H]1C=C(OC(=O)c2cccc(CO)c2)C(=O)[C@H]2[C@@]1(C)CC[C@H]1C(=O)O[C@H](c3ccoc3)C[C@]21C [Entry 4, Methyl (2S,4aR,6aR,7R,10aR,10bR)-2-(furan-3-yl)-9-((3-(hydroxymethyl)benzoyl)oxy)-6a,10b-dimethyl-4,10-dioxo-1,4,4a,5,6,6a,7,10,10a,10b-decahydro-2H-benzo[f]isochromene-7-carboxylate] | 150 | 75 |  |  | 0.87 | 2.42 ± 0.07 |  | 104 to 106 |  |  |
| COCc1ccc(C(=O)OC2=C[C@@H](C(=O)OC)[C@]3(C)CC[C@H]4C(=O)O[C@H](c5ccoc5)C[C@]4(C)[C@H]3C2=O)cc1 [Entry 5, Methyl (2S,4aR,6aR,7R,10aR,10bR)-2-(furan-3-yl)-9-((4-(methoxymethyl)benzoyl)oxy)-6a,10b-dimethyl-4,10-dioxo-1,4,4a,5,6,6a,7,10,10a,10b-decahydro-2H-benzo[f]isochromene-7-carboxylate] | 360 | 74 |  |  | 1.98 | 13 ± 3 |  |  |  |  |
| COC(=O)[C@@H]1C=C(OC(=O)c2ccc(C(N)=O)cc2)C(=O)[C@H]2[C@@]1(C)CC[C@H]1C(=O)O[C@H](c3ccoc3)C[C@]21C [Entry 6] | 10 | 119 | 0.19 ± 0.03 |  | 1.57 |  |  |  |  | almost an order of magnitude more potent than kurkinorin |
| COC(=O)[C@@H]1C=C(OC(=O)c2ccc3c(c2)C(=O)NC3)C(=O)[C@H]2[C@@]1(C)CC[C@H]1C(=O)O[C@H](c3ccoc3)C[C@]21C [Entry 8, (2S,4aR,6aR,7R,10aR,10bR)-2-(furan-3-yl)-7-(methoxycarbonyl)-6a,10b-dimethyl-4,10-dioxo-1,4,4a,5,6,6a,7,10,10a,10b-decahydro-2H-benzo[f]isochromen-9-yl 3-oxoisoindoline-5-carboxylate] | 190 | 76 |  |  | 0.65 | 2.2 ± 0.2 |  |  |  |  |
| COC(=O)[C@@H]1C=C(OC(=O)c2ccc3c(c2)CNC3=O)C(=O)[C@H]2[C@@]1(C)CC[C@H]1C(=O)O[C@H](c3ccoc3)C[C@]21C [Entry 9, (2S,4aR,6aR,7R,10aR,10bR)-2-(furan-3-yl)-7-(methoxycarbonyl)-6a,10b-dimethyl-4,10-dioxo-1,4,4a,5,6,6a,7,10,10a,10b-decahydro-2H-benzo[f]isochromen-9-yl 1-oxoisoindoline-5-carboxylate] | 260 | 88 |  |  | 0.81 | 3.2 ± 0.7 |  |  |  |  |
